The text below walks through data of US20240124431A1, “2,3-DIHYDRO-4H-BENZO[B][1,4]OXAZIN-4-YL)(5-(PHENYL)-PYRIDIN-3-YL)METHANONE DERIVATIVES AND SIMILAR COMPOUNDS AS CYP11A1 INHIBITORS FOR THE TREATMENT OF PROSTATE CANCER” (ORION CORPORATION, priority 2020, published 2024).

The structures appear in SMILES notation.

This assay addresses T1, CYP11A1 (Homo sapiens, UniProt P05108).
T1 construct: endogenous in cells; host or cells: NCI-H295R
T1 sequence (P05108 40-521): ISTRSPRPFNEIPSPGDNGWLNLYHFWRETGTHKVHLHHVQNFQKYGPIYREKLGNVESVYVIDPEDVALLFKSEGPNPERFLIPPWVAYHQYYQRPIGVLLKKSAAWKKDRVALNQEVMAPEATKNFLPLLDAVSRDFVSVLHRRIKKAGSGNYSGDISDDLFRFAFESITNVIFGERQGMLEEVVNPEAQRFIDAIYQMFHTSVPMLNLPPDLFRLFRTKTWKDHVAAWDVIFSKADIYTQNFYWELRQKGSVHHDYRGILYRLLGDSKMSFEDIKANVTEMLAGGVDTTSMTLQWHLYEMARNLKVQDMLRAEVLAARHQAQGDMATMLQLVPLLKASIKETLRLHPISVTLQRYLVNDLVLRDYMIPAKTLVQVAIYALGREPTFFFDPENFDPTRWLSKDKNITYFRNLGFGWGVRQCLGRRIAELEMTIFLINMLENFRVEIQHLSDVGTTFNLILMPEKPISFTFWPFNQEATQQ
The assay can be described thus: CYP11A1 inhibition: pregnenolone biosynthesis measured by ELISA in NCI-H295R cells. Format: cell-based. Particulars: NCI-H295R cells treated for 24 hours, 10 concentrations in duplicates, read-out: IC50 on CYP11A1 inhibition (Group). The protocol:
The ability of the test compounds to inhibit pregnenolone biosynthesis was measured by enzyme-linked immunosorbent assay (ELISA) detecting pregnenolone (Abnova Pregnenolone ELISA Kit, KA1912). […] To determine the half maximal inhibitory concentration (IC50) of the test compounds on CYP11A1 inhibition, the cells were treated for 24 hours with increasing concentrations of the test compound. The final DMSO concentration was 0.4%. Medium samples were diluted 1:6 and pregnenolone amounts determined with ELISA. Manufacturer's recommended protocols were used and pregnenolone (Sigma-Aldrich, P9129) standards were prepared in cell culture medium. Absorbance (A450) was measured with Envision plate reader (PerkinElmer). All the test compounds were studied at 10 concentrations in duplicates.
(ELISA stands for enzyme-linked immunosorbent assay.)
For orientation: IC50 means the concentration needed to halve the response being measured. For `O=C(c1cncc(N2CCCC2)n1)N1CCOc2ccccc21` [Compound 76, (2,3-dihydro-4H-benzo[b][1,4]oxazin-4-yl)(6-(pyrrolidin-1-yl)pyrazin-2-yl)-methanone], the IC50 was in the range of 0.201 to 2.5 µM. With `O=C(c1cncc(N2CC(F)(F)C2)n1)N1CCOc2ccccc21` [Compound 77, (6-(3,3-Difluoroazetidin-1-yl)pyrazin-2-yl)(2,3-dihydro-4H-benzo[b][1,4]oxazin-4-yl)methanone], the concentration for half-maximal inhibition (IC50) lay within 0.201 to 2.5 µM.

Consider `CN1CCN(c2cncc(C(=O)N3CCOc4ccccc43)n2)CC1` [Compound 78, (2,3-Dihydro-4H-benzo[b][1,4]oxazin-4-yl)(6-(4-methylpiperazin-1-yl)pyrazin-2-yl)methanone], for which the IC50 is 0.201 to 2.5 µM. For the molecule `O=C(Cc1cncc(-c2ccc(F)cc2)c1)N1CCCc2ccccc21` [Compound 79, 1-(3,4-Dihydroquinolin-1(2H)-yl)-2-(5-(4-fluorophenyl)pyridin-3-yl)ethan-1-one], the 50% inhibitory concentration (IC50) fell in the range of 0.201 to 2.5 µM.

On to `COc1ccc(-c2cncc(CC(=O)N3CCOc4ccccc43)c2)cc1` [Compound 80, 1-(2,3-Dihydro-4H-benzo[b][1,4]oxazin-4-yl)-2-(5-(4-methoxyphenyl)pyridin-3-yl)ethan-1-one], for which the IC50 fell in the range of 0.201 to 2.5 µM.

`c1ccc(-c2cncc(CN3CCOc4ccccc43)c2)cc1` [Compound 81, 4-((5-Phenylpyridin-3-yl)methyl)-3,4-dihydro-2H-benzo[b][1,4]oxazine]: the IC50 lay within 0.201 to 2.5 µM. Regarding `Cc1cn(-c2cncc(C(=O)N3CCCc4ccccc43)c2)cn1` [Compound 82, (3,4-Dihydroquinolin-1(2H)-yl)(5-(4-methyl-1H-imidazol-1-yl)pyridin-3-yl)-methanone], the IC50 lay within 0.201 to 2.5 µM. In the case of `Cc1cn(-c2cncc(C(=O)N3CCCc4ccccc43)n2)cn1` [Compound 83, (3,4-Dihydroquinolin-1(2H)-yl)(6-(4-methyl-1H-imidazol-1-yl)pyrazin-2-yl)-methanone] it was < 0.05 µM. As to `Cc1cnn(-c2cncc(C(=O)N3CCCc4ccccc43)n2)c1` [Compound 84, (3,4-Dihydroquinolin-1(2H)-yl)(6-(4-methyl-1H-pyrazol-1-yl)pyrazin-2-yl)-methanone], the half-maximal inhibitory concentration (IC50) was < 0.05 µM. In the case of `O=C(c1cncc(Cc2ccccc2)n1)N1CCCc2ccccc21` [Compound 85, (6-Benzylpyrazin-2-yl)(3,4-dihydroquinolin-1(2H)-yl)methanone] it was 0.201 to 2.5 µM; in that of `O=C(Cc1cncc(-c2ccc(F)cc2)c1)N1CCOc2ccccc21` [Compound 86, 1-(2,3-Dihydro-4H-benzo[b][1,4]oxazin-4-yl)-2-(5-(4-fluorophenyl)pyridin-3-yl)ethan-1-one], 0.201 to 2.5 µM. In the case of `Cc1cc(C)n(-c2cncc(C(=O)N3CCCc4ccccc43)n2)n1` [Compound 87, (3,4-Dihydroquinolin-1(2H)-yl)(6-(3,5-dimethyl-1H-pyrazol-1-yl)pyrazin-2-yl)-methanone], the half-inhibitory concentration (IC50) fell in the range of 0.051 to 0.2 µM. In the case of `Cc1cnn(-c2cncc(C(=O)N3CCCc4ccccc43)c2)c1` [Compound 88, (3,4-Dihydroquinolin-1(2H)-yl)(5-(4-methyl-1H-pyrazol-1-yl)pyridin-3-yl)-methanone] it was < 0.05 µM; in that of `Fc1ccc(-c2cncc(CN3CCCc4ccccc43)c2)cc1` [Compound 89, 1-((5-(4-Fluorophenyl)pyridin-3-yl)methyl)-1,2,3,4-tetrahydroquinoline], 0.051 to 0.2 µM. As for `Fc1ccc(-c2cncc(CN3CCc4ccccc43)c2)cc1` [Compound 90, 1-((5-(4-Fluorophenyl)pyridin-3-yl)methyl)indoline], the 50% inhibitory concentration (IC50) was 0.051 to 0.2 µM. `Fc1ccc(-c2cncc(CN3CCOc4ccccc43)c2)cc1` [Compound 91]: the IC50 is 0.201 to 2.5 µM.
